The source of these data is article PMC8911752, “The Synthesis and Initial Evaluation of MerTK Targeted PET Agents” (Molecules, 2022).

One series concerns kinome. Also noted: method as in PMID 34038857. The note with it: at 100 nM, against the kinome; cited from earlier work.
For another series, the target named is T1, MerTK (Homo sapiens, UniProt Q12866).
T1 sequence (Q12866 21-999): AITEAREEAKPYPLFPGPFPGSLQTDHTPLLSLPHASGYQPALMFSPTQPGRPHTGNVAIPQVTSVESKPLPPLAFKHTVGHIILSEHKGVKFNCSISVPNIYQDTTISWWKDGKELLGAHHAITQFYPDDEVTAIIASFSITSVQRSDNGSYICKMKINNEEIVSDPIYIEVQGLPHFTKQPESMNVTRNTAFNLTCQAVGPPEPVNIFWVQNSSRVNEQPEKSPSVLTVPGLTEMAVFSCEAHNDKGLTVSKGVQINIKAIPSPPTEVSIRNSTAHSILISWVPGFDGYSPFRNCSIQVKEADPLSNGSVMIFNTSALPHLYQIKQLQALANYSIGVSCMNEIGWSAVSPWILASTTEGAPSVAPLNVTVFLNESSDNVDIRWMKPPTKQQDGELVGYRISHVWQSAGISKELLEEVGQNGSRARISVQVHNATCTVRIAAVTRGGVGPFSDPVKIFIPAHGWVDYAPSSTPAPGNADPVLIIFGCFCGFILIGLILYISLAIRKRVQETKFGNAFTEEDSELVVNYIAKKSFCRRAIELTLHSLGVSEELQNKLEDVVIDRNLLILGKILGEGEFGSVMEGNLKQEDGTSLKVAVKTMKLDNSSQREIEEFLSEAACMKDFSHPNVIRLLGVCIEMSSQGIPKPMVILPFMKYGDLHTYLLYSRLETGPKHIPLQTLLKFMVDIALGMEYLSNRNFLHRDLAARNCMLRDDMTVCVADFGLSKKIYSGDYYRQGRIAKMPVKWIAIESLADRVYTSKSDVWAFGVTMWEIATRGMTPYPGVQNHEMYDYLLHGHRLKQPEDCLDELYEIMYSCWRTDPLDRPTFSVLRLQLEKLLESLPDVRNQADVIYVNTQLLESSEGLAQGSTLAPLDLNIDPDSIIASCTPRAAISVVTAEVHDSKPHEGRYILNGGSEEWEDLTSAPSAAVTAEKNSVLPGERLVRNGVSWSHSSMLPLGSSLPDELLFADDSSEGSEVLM
Details: method as in PMID 34038857. The note with it: read-out: Ki against MerTK; cited from earlier work.

Series [1] relates to B16F10 tumor-bearing mice. The series can be described thus: PET imaging in B16F10 tumor-bearing mice. The note with it: for uptake in kidney / uptake in liver / uptake in muscle / uptake in tumor: i.v., PET ROI, n = 3. The series is classed as in vivo. The protocol:
Evaluation of the PET agent [^18F]-MerTK-6 was performed on B16F10 tumor-bearing mice. At 30 min post-injection (p.i), the uptake in tumor, liver, kidney, and muscle was 4.65 ± 1.25, 14.79 ± 0.99, 10.42 ± 1.01, and 2.51 ± 0.48%ID/g, respectively. The uptake at 2 h p.i. was 4.79 ± 0.24, 9.72 ± 1.56, 5.34 ± 1.25, and 1.55 ± 0.23%ID/g, respectively. Overall, the tumor uptake was maintained at ~5%ID/g and the tumor to muscle contrast increased to 3.09 at 2 h p.i, compared with 1.86 at 0.5 h p.i.
All animal studies were reviewed and approved by The University of North Carolina at Chapel Hill Institutional Animal Care and Use Committee. The B16F10 tumor cell was obtained from the LCCC tissue culture facility (the University of North Carolina at Chapel Hill, Chapel Hill, NC, USA). The B16F10 tumor-bearing […] mouse model was prepared as described previously. Briefly, B16/F10 cells were subcutaneously injected on the right flank of C57BL/6 female mice (Jackson Laboratory). The tumor volume was measured daily. When the tumor size reached 100 mm^3, the mice were used for PET imaging studies.
B16F10 tumor-bearing mice (n = 3/group) were intravenously injected via the tail vein with tracers. At 30 min and 120 min post-injection, a 10-min static emission scan was acquired with a SuperArgus small-animal PET/CT scanner. The regions of interests (ROIs) were drawn over the tumor and other organs and calculated as %ID/g. The mean uptake and standard deviation were calculated.

A short description of series [2]: 1-octanol/water partition coefficient (LogP) by gamma counting. The format is physicochemical. To be noted: pH 7.4, sample pH around 7.4, n = 3, mean ± SD. The protocol: In order to evaluate the hydrophilicity and lipophilicity of this fluorine-18 labeled agent [^18F]-MerTK-6, we measured the 1-octanol/water partition coefficient (LogP) of [^18F]-MerTK-6. The resulting fractions were counted using a gamma counter. The reaction was repeated three times.
The LogP value of the [^18F]-MerTK-6 was calculated by the gamma particle counts of samples in the aqueous phase or 1-octanol phase by Automatic Gamma Counter 2480-0010 (PerkinElmer Instruments Inc., Waltham, MA, USA).
The [^18F]-MerTK-6 was collected after HPLC purification. After reformulation (pH value around 7.4), 20 µL [^18F]-MerTK-6 sample in saline was added to the mixture of 1 mL Mili-Q® water and 1 mL 1-octanol in a 5 mL Eppendorf tube. The tube was shacked thoroughly and then let stand still for 5 min. Then the 100 µL 1-octanol phase and 100 µL aqueous phase were subjected to a gamma counter separately and the gamma counts were recorded (n = 3). The LogP value was then calculated and expressed as a mean value± standard derivation.

The term Ki denotes a measure of affinity in units of concentration, obtained from inhibition or displacement. Turning to `CCC[C@H](C)Nc1ncc2c(C3CCN(C(=O)c4cc(C)nc(C)c4)CC3)cn(C3CCC(O)CC3)c2n1` (some centres unmarked) [UNC5293], in the series on kinome, the “Ambit selectivity score S50” value was 0.041. The inhibition constant Ki at MerTK was 0.19 nM.
In general, logP refers to the decadic logarithm of the partition coefficient of the neutral form, usually between octanol and water. A low value points to a more hydrophilic compound. In the case of `C[C@H](Nc1ncc2c(C3CCN(CC[18F])CC3)cn([C@H]3CC[C@H](O)CC3)c2n1)c1ccccc1` [[^18F]-MerTK-6], in series [1] (0.5 h post-injection), the “tumor to muscle ratio” value worked out at 1.86. Moreover, in series [1] (30 min post-injection), the uptake in kidney is 10.42 ± 1.01 %ID/g, the uptake in liver was determined as 14.79 ± 0.99 %ID/g, the uptake in muscle was 2.51 ± 0.48 %ID/g and the uptake in tumor is 4.65 ± 1.25 %ID/g. In series [1] (2 h post-injection), the “tumor to muscle ratio” value is 3.09, the uptake in kidney came to 5.34 ± 1.25 %ID/g, the uptake in liver is given as 9.72 ± 1.56 %ID/g and the uptake in muscle is on record as 1.55 ± 0.23 %ID/g. In series [1] (2 h post-injection), this molecule came in with an uptake in tumor of 4.79 ± 0.24 %ID/g. Moreover, in series [1] (overall, 0.5 h to 2 h post-injection), the “tumor uptake (overall, maintained)” value is recorded as ~ 5 %ID/g. The molecule also displayed a log partition coefficient (logP) in series [2] of 1.56 ± 0.02.
